Reference: patent publication US20100081162A1, “METHOD OF EVALUATING ANTIWRINKLE SUBSTANCE AND METHOD OF ASSESSING THE SKIN” (POLA CHEMICAL INDUSTRIES INC., priority 2007, published 2010)

What was measured:
collagen fiber bundles = experiment: Tightness in collagen fiber bundles in collagen gel with NHDF in the presence of heparin (SEM); type: cell-based, human
integrin gene = experiment: Effect of farrerol on expression amount of integrin gene (real-time PCR); type: cell-based; conditions: normal human fibroblasts, 5 days
Protocol: (§1) In the normal human fibroblasts cultivated in a culture solution with or without farrerol for 5 days, the expression amounts of the integrin gene and the type-I collagen gene as a main component of dermal collagen were evaluated by the real-time PCR. The procedure followed the procedure in Example 1 except for the used primer. It should be noted that the following QuantiTect (registered trademark) Primer Assays was used as a primer. […] Specifically, the expression amount of the β1 protein gene increased by a factor of about 1.9, the expression amount of the α2 protein gene increased by a factor of about 2.6, and the expression amount of the α5 protein gene increased by a factor of about 1.7.

β1 protein gene (ITGB1) = experiment: Effect of farrerol on expression amount of β1 protein gene (real-time PCR); type: cell-based; conditions: normal human fibroblasts, 5 days
Protocol: as §1

α2 protein gene (ITGA2) = experiment: Effect of farrerol on expression amount of α2 protein gene (real-time PCR); type: cell-based; conditions: normal human fibroblasts, 5 days
Protocol: as §1

α5 protein gene (ITGA5) = experiment: Effect of farrerol on expression amount of α5 protein gene (real-time PCR); type: cell-based; conditions: normal human fibroblasts, 5 days
Protocol: as §1

[1] = system: type-I collagen gene (COL1A1, COL1A2); experiment: Effect of farrerol on expression amount of type-I collagen gene (real-time PCR); type: cell-based; conditions: normal human fibroblasts, 5 days
Protocol: as §1

Compound | effect on inhibition of tightness of collagen fiber bundles due to heparin (collagen fiber bundles; NHDF in collagen gel, 0.1% or 1% heparin, farrerol 10^−6% or 10^−7% at final, 5 days, SEM) | increase in the expression amount of the integrin gene (factor, with vs without farrerol) (integrin gene) | increase in the expression amount of the β1 protein gene (factor) (β1 protein gene (ITGB1)) | increase in the expression amount of the α2 protein gene (factor) (α2 protein gene (ITGA2)) | increase in the expression amount of the α5 protein gene (factor) (α5 protein gene (ITGA5)) | expression amount of the type-I collagen gene [1] | effect on tightness in collagen fiber bundles (collagen fiber bundles; heparin alone)
Cc1c(O)c(C)c2c(c1O)C(=O)C[C@@H](c1ccc(O)cc1)O2 [farrerol] | suppressed inhibition of tightness of collagen fiber bundles due to heparin | ≥ 1.5 factor | about 1.9 factor | about 2.6 factor | about 1.7 factor | not significantly increased | 
Heparin |  |  |  |  |  |  | inhibitory effect
